The target of one experiment is T1, Calcitonin receptor (Homo sapiens, UniProt P30988). Note: in other assays of this panel Not Active means under 50% inhibition at 10 µM.
T1 sequence (P30988 whole entry): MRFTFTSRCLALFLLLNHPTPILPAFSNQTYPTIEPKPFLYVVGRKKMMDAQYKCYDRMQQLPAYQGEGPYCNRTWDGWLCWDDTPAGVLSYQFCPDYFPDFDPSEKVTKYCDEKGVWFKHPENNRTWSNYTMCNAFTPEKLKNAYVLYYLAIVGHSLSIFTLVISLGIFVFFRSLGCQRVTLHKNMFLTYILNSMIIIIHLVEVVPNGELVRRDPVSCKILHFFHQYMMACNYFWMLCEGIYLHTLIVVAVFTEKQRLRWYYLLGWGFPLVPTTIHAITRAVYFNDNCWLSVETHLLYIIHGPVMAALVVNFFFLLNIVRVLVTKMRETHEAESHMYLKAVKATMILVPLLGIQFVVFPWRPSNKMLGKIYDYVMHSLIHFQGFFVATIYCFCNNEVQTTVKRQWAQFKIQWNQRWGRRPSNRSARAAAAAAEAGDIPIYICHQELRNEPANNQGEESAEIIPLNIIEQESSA
Assay: not given
The format is cell membranes, Membrane. The conditions noted are these: t47d.
As to `CC(C)[C@H](N)C(=O)OCCOCn1cnc2c(=O)nc(N)[nH]c21` [VALACYCLOVIR], the IC50 entry is listed as “Not Active”.
Take `COc1ccc(C(CN(C)C)C2(O)CCCCC2)cc1` (stereo not drawn) [VENLAFAXINE]: the IC50 result is listed as “Not Active”.

System in the next experiment: not listed separately
Nature of the experiment: DRUGMATRIX: Sodium/nucleoside co-transporter radioligand binding (ligand: nitrobenzylthioinosine). The experiment is classed as cell membranes, Cavia porcellus, Dunkin-Hartley, Cerebral cortex, Membrane. As to conditions: Not Active = under 50% inhibition at 10 µM.
Take `CC(C)[C@H](N)C(=O)OCCOCn1cnc2c(=O)nc(N)[nH]c21` [VALACYCLOVIR]: the IC50 entry is “Not Active” and the Ki entry was “Not Active”.
Turning to `COc1ccc(C(CN(C)C)C2(O)CCCCC2)cc1` (stereo not drawn) [VENLAFAXINE], the IC50 entry is recorded as “Not Active” and the Ki result is “Not Active”.

The next experiment addresses Protein kinase C alpha type (Homo sapiens, UniProt P17252).
Assay: not given
The experiment is classed as cell-based. As to conditions: sf9.
For the compound `CC(C)[C@H](N)C(=O)OCCOCn1cnc2c(=O)nc(N)[nH]c21` [VALACYCLOVIR], the IC50 result is listed as “Not Active”.
Same read-out and setting: for `COc1ccc(C(CN(C)C)C2(O)CCCCC2)cc1` (stereo not drawn) [VENLAFAXINE] the value was “Not Active”.

The next experiment deals with Epidermal growth factor receptor (Homo sapiens, UniProt P00533). Put plainly: DRUGMATRIX: Protein Tyrosine Kinase, EGF Receptor enzyme inhibition (substrate: Poly(Glu:Tyr)). The experiment is classed as cell-based, Insect cells. The conditions noted are these: insect cells; Not Active = under 50% inhibition at 10 µM.
Epidermal growth factor receptor, sequence (P00533 whole entry): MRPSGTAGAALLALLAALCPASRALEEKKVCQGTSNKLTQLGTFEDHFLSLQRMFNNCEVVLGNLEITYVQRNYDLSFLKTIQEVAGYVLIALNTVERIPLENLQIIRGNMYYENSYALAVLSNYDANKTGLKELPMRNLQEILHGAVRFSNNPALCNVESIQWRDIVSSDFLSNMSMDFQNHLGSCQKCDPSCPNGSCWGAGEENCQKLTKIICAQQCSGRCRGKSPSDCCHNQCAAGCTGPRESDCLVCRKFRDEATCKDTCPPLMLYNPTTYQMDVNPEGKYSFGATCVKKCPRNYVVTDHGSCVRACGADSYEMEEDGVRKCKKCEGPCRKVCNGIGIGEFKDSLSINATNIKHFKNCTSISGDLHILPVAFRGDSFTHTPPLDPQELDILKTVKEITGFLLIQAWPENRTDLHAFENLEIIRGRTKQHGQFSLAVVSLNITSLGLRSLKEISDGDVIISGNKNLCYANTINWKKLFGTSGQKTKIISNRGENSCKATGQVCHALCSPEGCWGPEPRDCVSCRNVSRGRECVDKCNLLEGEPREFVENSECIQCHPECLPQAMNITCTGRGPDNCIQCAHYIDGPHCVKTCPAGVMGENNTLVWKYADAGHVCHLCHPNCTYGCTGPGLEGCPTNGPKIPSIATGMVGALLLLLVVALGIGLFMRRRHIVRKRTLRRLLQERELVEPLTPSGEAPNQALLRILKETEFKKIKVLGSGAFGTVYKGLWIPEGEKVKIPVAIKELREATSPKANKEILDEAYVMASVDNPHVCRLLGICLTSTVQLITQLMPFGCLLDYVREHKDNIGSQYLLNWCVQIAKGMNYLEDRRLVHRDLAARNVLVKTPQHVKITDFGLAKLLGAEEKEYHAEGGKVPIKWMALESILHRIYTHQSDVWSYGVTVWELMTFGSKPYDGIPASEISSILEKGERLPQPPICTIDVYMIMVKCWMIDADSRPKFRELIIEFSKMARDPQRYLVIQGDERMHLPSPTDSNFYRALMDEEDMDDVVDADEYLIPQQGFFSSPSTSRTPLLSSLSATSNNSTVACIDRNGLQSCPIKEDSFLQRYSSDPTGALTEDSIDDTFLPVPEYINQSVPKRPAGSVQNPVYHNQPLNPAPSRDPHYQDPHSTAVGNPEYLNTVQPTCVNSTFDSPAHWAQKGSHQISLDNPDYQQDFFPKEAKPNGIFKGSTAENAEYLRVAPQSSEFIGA
With `CC(C)[C@H](N)C(=O)OCCOCn1cnc2c(=O)nc(N)[nH]c21` [VALACYCLOVIR], the IC50 result is “Not Active”.
`COc1ccc(C(CN(C)C)C2(O)CCCCC2)cc1` (stereo not drawn) [VENLAFAXINE]: the IC50 result is “Not Active”.

A further experiment addresses T2, Alpha-1A adrenergic receptor (Rattus norvegicus, UniProt P43140).
T2 sequence (P43140 whole entry): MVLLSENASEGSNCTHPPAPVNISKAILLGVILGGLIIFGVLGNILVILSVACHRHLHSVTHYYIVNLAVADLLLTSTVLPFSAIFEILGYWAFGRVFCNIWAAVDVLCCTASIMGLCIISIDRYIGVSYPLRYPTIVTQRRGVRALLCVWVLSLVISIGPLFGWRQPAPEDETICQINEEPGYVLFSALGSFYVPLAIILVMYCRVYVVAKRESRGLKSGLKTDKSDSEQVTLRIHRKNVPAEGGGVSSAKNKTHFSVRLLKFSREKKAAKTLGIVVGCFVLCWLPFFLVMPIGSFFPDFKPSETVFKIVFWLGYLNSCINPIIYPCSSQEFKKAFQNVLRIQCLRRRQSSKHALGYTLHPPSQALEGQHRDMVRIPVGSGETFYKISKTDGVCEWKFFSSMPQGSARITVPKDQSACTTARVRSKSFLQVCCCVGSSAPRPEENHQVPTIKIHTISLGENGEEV
Put plainly: DRUGMATRIX: Alpha-1A adrenergic receptor radioligand binding (ligand: prazosin). The experiment is classed as cell membranes, Wistar, Submaxillary gland, Membrane. As to conditions: Not Active = under 50% inhibition at 10 µM.
With `CC(C)[C@H](N)C(=O)OCCOCn1cnc2c(=O)nc(N)[nH]c21` [VALACYCLOVIR], the IC50 entry is recorded as “Not Active”.
As to `COc1ccc(C(CN(C)C)C2(O)CCCCC2)cc1` (stereo not drawn) [VENLAFAXINE], the IC50 entry is listed as “Not Active”.

System in the next experiment: not listed separately
Nature of the experiment: DRUGMATRIX: Phosphodiesterase PDE4 enzyme inhibition (substrate: [3H]cAMP + cAMP). As to conditions: u-937; Not Active = under 50% inhibition at 10 µM.
Regarding `CC(C)[C@H](N)C(=O)OCCOCn1cnc2c(=O)nc(N)[nH]c21` [VALACYCLOVIR], the IC50 result is “Not Active” and the Ki entry is on record as “Not Active”.
`COc1ccc(C(CN(C)C)C2(O)CCCCC2)cc1` (stereo not drawn) [VENLAFAXINE]: the IC50 result is given as “Not Active” and the Ki entry was “Not Active”.

For the next experiment, the target named is Beta-3 adrenergic receptor (Homo sapiens, UniProt P13945). Nature of the experiment: DRUGMATRIX: Adrenergic beta3 radioligand binding (ligand: [125I] Cyanopindolol). The experiment is classed as cell membranes, HEK293, Membrane. As to conditions: hek293; Not Active = under 50% inhibition at 10 µM.
Beta-3 adrenergic receptor, sequence (P13945 whole entry): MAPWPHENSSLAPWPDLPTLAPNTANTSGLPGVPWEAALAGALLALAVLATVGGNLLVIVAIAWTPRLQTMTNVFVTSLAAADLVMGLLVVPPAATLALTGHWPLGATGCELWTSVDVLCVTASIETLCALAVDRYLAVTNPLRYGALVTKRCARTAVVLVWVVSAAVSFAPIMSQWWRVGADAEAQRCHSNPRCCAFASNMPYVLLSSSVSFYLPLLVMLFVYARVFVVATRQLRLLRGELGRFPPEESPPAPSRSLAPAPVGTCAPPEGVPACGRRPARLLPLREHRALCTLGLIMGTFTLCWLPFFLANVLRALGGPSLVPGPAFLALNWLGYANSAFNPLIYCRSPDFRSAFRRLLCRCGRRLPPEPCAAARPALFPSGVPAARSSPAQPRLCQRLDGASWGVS
Turning to `CC(C)[C@H](N)C(=O)OCCOCn1cnc2c(=O)nc(N)[nH]c21` [VALACYCLOVIR], the IC50 entry is listed as “Not Active”.
Turning to `COc1ccc(C(CN(C)C)C2(O)CCCCC2)cc1` (stereo not drawn) [VENLAFAXINE], the IC50 entry is “Not Active”.

Another experiment deals with T3, Alpha-1D adrenergic receptor (Homo sapiens, UniProt P25100).
T3 sequence (P25100 whole entry): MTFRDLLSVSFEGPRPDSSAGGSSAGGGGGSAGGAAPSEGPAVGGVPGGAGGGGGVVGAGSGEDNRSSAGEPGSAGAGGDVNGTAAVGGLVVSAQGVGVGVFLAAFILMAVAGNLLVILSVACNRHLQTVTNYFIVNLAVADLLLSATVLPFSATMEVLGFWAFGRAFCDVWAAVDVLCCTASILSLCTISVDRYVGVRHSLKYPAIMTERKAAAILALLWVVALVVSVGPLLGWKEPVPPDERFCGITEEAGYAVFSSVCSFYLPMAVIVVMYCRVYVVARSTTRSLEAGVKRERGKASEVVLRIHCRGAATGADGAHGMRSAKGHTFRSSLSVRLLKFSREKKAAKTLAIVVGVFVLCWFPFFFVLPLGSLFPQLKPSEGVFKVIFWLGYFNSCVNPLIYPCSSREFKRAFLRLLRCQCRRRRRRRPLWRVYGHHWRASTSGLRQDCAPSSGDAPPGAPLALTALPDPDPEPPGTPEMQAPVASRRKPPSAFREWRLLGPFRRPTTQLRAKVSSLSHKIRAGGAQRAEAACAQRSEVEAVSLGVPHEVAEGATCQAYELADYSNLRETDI
Assay: not given
The conditions noted are these: hek293. The experiment is classed as cell membranes, HEK293, Membrane.
On to `CC(C)[C@H](N)C(=O)OCCOCn1cnc2c(=O)nc(N)[nH]c21` [VALACYCLOVIR], for which the IC50 entry is reported as “Not Active”.
On to `COc1ccc(C(CN(C)C)C2(O)CCCCC2)cc1` (stereo not drawn) [VENLAFAXINE], for which the IC50 result was “Not Active”.

The target in a further experiment is T4, D(4) dopamine receptor (Homo sapiens, UniProt P21917).
T4 sequence (P21917 whole entry): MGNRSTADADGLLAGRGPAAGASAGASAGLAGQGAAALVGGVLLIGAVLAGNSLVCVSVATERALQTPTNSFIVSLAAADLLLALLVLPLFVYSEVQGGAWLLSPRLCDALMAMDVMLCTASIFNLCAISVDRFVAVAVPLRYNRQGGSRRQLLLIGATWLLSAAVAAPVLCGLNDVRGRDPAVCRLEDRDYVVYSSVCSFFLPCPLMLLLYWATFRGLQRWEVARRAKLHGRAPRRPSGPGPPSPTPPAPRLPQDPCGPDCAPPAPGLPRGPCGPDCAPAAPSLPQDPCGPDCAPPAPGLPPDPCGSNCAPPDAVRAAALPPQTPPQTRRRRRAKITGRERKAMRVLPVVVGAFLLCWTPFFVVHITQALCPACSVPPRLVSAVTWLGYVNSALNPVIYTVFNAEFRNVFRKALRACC
Nature of the experiment: DRUGMATRIX: Dopamine D4.2 radioligand binding (ligand: [3H] Spiperone). The experiment is classed as cell membranes, CHO-K1, Membrane. The conditions noted are these: cho-k1; Not Active = under 50% inhibition at 10 µM.
Turning to `CC(C)[C@H](N)C(=O)OCCOCn1cnc2c(=O)nc(N)[nH]c21` [VALACYCLOVIR], the IC50 entry was “Not Active”.
As to `COc1ccc(C(CN(C)C)C2(O)CCCCC2)cc1` (stereo not drawn) [VENLAFAXINE], the IC50 entry is recorded as “Not Active”.

The target in the next experiment is T5, Cathepsin G (Homo sapiens, UniProt P08311).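 Note: inhibition of Cathepsin G enzyme activity, tested on an AMC-conjugated peptide substrate; in other assays of this panel Not Active means under 50% inhibition at 10 µM.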
T5 sequence (P08311 whole entry): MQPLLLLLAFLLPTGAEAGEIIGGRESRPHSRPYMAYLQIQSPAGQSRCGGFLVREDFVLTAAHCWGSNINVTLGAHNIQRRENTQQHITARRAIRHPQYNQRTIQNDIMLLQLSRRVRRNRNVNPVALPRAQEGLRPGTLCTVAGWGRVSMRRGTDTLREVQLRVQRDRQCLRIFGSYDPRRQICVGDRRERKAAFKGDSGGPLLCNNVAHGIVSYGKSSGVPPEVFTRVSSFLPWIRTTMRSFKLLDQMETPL
Assay: not given
The experiment is classed as tissue-based. The conditions noted are these: neutrophil.
For the compound `CC(C)[C@H](N)C(=O)OCCOCn1cnc2c(=O)nc(N)[nH]c21` [VALACYCLOVIR], the IC50 result is recorded as “Not Active”.
For the compound `COc1ccc(C(CN(C)C)C2(O)CCCCC2)cc1` (stereo not drawn) [VENLAFAXINE], the IC50 result is listed as “Not Active”.

The target in a further experiment is Glycine receptor (Rattus norvegicus, UniProt P22771+P24524+P07727+P20781). Note: in other assays of this panel Not Active means under 50% inhibition at 10 µM.
Assay: not given
The experiment is classed as cell membranes, Wistar, Spinal cord, Membrane.
Conditions: not given
With `CC(C)[C@H](N)C(=O)OCCOCn1cnc2c(=O)nc(N)[nH]c21` [VALACYCLOVIR], the IC50 entry is “Not Active”.
In the case of `COc1ccc(C(CN(C)C)C2(O)CCCCC2)cc1` (stereo not drawn) [VENLAFAXINE], the IC50 result is “Not Active”.

The target of the next experiment is Prostaglandin G/H synthase 1 (Homo sapiens, UniProt P23219). Put plainly: biochemical. The format is tissue-based, Platelet. As to conditions: platelet.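 Note: inhibition of COX-1 enzyme activity, with arachidonic acid supplied as substrate; in other assays of this panel Not Active means under 50% inhibition at 10 µM.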
Prostaglandin G/H synthase 1, sequence (P23219 whole entry): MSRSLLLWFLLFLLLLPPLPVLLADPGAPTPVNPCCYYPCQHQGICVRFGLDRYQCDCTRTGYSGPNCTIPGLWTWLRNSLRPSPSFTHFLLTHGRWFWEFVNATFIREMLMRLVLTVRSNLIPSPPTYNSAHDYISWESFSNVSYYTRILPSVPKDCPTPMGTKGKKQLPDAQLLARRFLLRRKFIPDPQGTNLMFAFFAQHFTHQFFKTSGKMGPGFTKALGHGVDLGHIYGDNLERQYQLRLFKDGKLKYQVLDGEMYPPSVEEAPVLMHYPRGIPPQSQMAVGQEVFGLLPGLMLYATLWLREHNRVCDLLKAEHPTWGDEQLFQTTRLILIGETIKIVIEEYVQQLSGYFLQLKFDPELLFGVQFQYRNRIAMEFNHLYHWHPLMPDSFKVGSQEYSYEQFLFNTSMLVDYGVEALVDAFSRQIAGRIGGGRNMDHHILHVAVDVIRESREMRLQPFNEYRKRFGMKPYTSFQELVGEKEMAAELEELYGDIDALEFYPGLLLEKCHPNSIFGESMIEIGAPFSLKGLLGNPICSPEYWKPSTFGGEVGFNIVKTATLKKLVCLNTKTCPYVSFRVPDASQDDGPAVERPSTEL
As for `CC(C)[C@H](N)C(=O)OCCOCn1cnc2c(=O)nc(N)[nH]c21` [VALACYCLOVIR], the IC50 entry is listed as “Not Active”.
For `COc1ccc(C(CN(C)C)C2(O)CCCCC2)cc1` (stereo not drawn) [VENLAFAXINE], the IC50 result is “Not Active”.
